Measurements published in ChEMBL document CHEMBL1201862, “PubChem BioAssay data set” (2004).
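Dose response: 5 concentrations. Exposure: 48 h. Format: 96-well plates. Endpoint: linear interpolation; highest concentration if not reached. GI50 is the concentration that inhibits growth by half.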 Activity calls are given as the source filed them. No stated cut-off is given here; in the data, active = GI50 up to about 1.1 µM and inactive = higher.

Experiments:
Assay in all cases: inhibition of tumour cell growth, NCI panel, 48 h
786-0 = system: 786-0
A498 = system: A498
A549 = system: A549
ACHN = system: ACHN
BT-549 = system: BT-549
CAKI-1 = system: CAKI-1
CCRF-CEM = system: CCRF-CEM
COLO 205 = system: COLO 205
DU-145 = system: DU-145
EKVX = system: EKVX
HCT-116 = system: HCT-116
HCT-15 = system: HCT-15
HL-60 = system: HL-60
HOP-62 = system: HOP-62
HOP-92 = system: HOP-92
HT-29 = system: HT-29
Hs-578T = system: Hs-578T
IGROV-1 = system: IGROV-1
K562 = system: K562
KM12 = system: KM12
LOX IMVI = system: LOX IMVI
M14 = system: M14
MCF7 = system: MCF7
MDA-MB-231 = system: MDA-MB-231
MDA-MB-435 = system: MDA-MB-435
MDA-N = system: MDA-N
MOLT-4 = system: MOLT-4
Malme-3M = system: Malme-3M
NCI-H226 = system: NCI-H226
NCI-H23 = system: NCI-H23
NCI-H460 = system: NCI-H460
NCI-H522 = system: NCI-H522
NCI/ADR-RES = system: NCI/ADR-RES
OVCAR-3 = system: OVCAR-3
OVCAR-4 = system: OVCAR-4
OVCAR-5 = system: OVCAR-5
OVCAR-8 = system: OVCAR-8
PC-3 = system: PC-3
RPMI-8226 = system: RPMI-8226
RXF 393 = system: RXF 393
SF-268 = system: SF-268
SF-295 = system: SF-295
SF-539 = system: SF-539
SK-MEL-28 = system: SK-MEL-28
SK-MEL-2 = system: SK-MEL-2
SK-MEL-5 = system: SK-MEL-5
SK-OV-3 = system: SK-OV-3
SN12C = system: SN12C
SNB-19 = system: SNB-19
SNB-75 = system: SNB-75
SR = system: SR
SW-620 = system: SW-620
T47D = system: T47D
TK-10 = system: TK-10
U-251 = system: U-251
UACC-257 = system: UACC-257
UACC-62 = system: UACC-62
UO-31 = system: UO-31

## O=C(O)/C=C(/C(=O)O)C12CCN3CC4=CCOC5CC(=O)NC1C5C4CC32 (stereo unspecified)
786-0
  GI50: > 100 µM (inactive)
A498
  GI50: > 100 µM (inactive)
A549
  GI50: > 100 µM (inactive)
ACHN
  GI50: > 100 µM (inactive)
BT-549
  GI50: > 100 µM (inactive)
CAKI-1
  GI50: > 100 µM (inactive)
CCRF-CEM
  GI50: > 100 µM (inactive)
COLO 205
  GI50: > 100 µM (inactive)
DU-145
  GI50: > 100 µM (inactive)
EKVX
  GI50: > 100 µM (inactive)
HCT-116
  GI50: > 100 µM (inactive)
HCT-15
  GI50: > 100 µM
HL-60
  GI50: > 100 µM (inactive)
HOP-62
  GI50: > 100 µM (inactive)
HOP-92
  GI50: > 100 µM (inactive)
HT-29
  GI50: > 100 µM (inactive)
Hs-578T
  GI50: > 100 µM (inactive)
IGROV-1
  GI50: > 100 µM (inactive)
K562
  GI50: > 100 µM (inactive)
KM12
  GI50: > 100 µM (inactive)
LOX IMVI
  GI50: > 100 µM (inactive)
M14
  GI50: > 100 µM (inactive)
MCF7
  GI50: > 100 µM (inactive)
MDA-MB-231
  GI50: > 100 µM (inactive)
MDA-MB-435
  GI50: > 100 µM (inactive)
MDA-N
  GI50: > 100 µM (inactive)
MOLT-4
  GI50: > 100 µM (inactive)
Malme-3M
  GI50: > 100 µM (inactive)
NCI-H226
  GI50: > 100 µM (inactive)
NCI-H23
  GI50: > 100 µM (inactive)
NCI-H460
  GI50: > 100 µM (inactive)
NCI-H522
  GI50: > 100 µM (inactive)
NCI/ADR-RES
  GI50: > 100 µM (inactive)
OVCAR-3
  GI50: > 100 µM (inactive)
OVCAR-4
  GI50: > 100 µM (inactive)
OVCAR-5
  GI50: > 100 µM (inactive)
OVCAR-8
  GI50: > 100 µM (inactive)
PC-3
  GI50: > 100 µM (inactive)
RPMI-8226
  GI50: > 100 µM (inactive)
RXF 393
  GI50: > 100 µM (inactive)
SF-268
  GI50: > 100 µM (inactive)
SF-295
  GI50: > 100 µM (inactive)
SF-539
  GI50: > 100 µM (inactive)
SK-MEL-28
  GI50: > 100 µM (inactive)
SK-MEL-2
  GI50: > 100 µM (inactive)
SK-MEL-5
  GI50: > 100 µM (inactive)
SK-OV-3
  GI50: > 100 µM (inactive)
SN12C
  GI50: > 100 µM (inactive)
SNB-19
  GI50: > 100 µM (inactive)
SNB-75
  GI50: > 100 µM (inactive)
SR
  GI50: > 100 µM (inactive)
SW-620
  GI50: > 100 µM (inactive)
T47D
  GI50: > 100 µM (inactive)
TK-10
  GI50: > 100 µM (inactive)
U-251
  GI50: > 100 µM (inactive)
UACC-257
  GI50: > 100 µM (inactive)
UACC-62
  GI50: > 100 µM (inactive)
UO-31
  GI50: > 100 µM (inactive)

## COC(=O)[C@@H]1[C@H](O)CC[C@H]2[C@@]1(C)CC[C@@H](C)[C@]2(COC(C)=O)CC(=O)c1ccoc1
786-0
  GI50: > 50 µM (inactive)
A498
  GI50: > 50 µM (inactive)
A549
  GI50: > 50 µM (inactive)
ACHN
  GI50: > 50 µM (inactive)
BT-549
  GI50: > 50 µM (inactive)
CAKI-1
  GI50: > 50 µM (inactive)
CCRF-CEM
  GI50: 16.7 µM (inactive)
COLO 205
  GI50: > 50 µM (inactive)
DU-145
  GI50: > 50 µM (inactive)
EKVX
  GI50: > 50 µM (inactive)
HCT-116
  GI50: > 50 µM (inactive)
HCT-15
  GI50: > 50 µM
HL-60
  GI50: 17 µM (inactive)
HOP-92
  GI50: > 50 µM (inactive)
HT-29
  GI50: > 50 µM (inactive)
Hs-578T
  GI50: > 50 µM (inactive)
IGROV-1
  GI50: > 50 µM (inactive)
KM12
  GI50: > 50 µM (inactive)
LOX IMVI
  GI50: > 50 µM (inactive)
M14
  GI50: > 50 µM (inactive)
MCF7
  GI50: > 50 µM (inactive)
MDA-MB-231
  GI50: > 50 µM (inactive)
MDA-MB-435
  GI50: > 50 µM (inactive)
MDA-N
  GI50: > 50 µM (inactive)
MOLT-4
  GI50: 28.6 µM (inactive)
NCI-H226
  GI50: > 50 µM (inactive)
NCI-H23
  GI50: > 50 µM (inactive)
NCI-H460
  GI50: > 50 µM (inactive)
NCI-H522
  GI50: 35.7 µM (inactive)
NCI/ADR-RES
  GI50: > 50 µM (inactive)
OVCAR-3
  GI50: > 50 µM (inactive)
OVCAR-4
  GI50: 25.2 µM (inactive)
OVCAR-5
  GI50: > 50 µM (inactive)
OVCAR-8
  GI50: > 50 µM (inactive)
PC-3
  GI50: > 50 µM (inactive)
RPMI-8226
  GI50: 26.1 µM (inactive)
RXF 393
  GI50: > 50 µM (inactive)
SF-268
  GI50: > 50 µM (inactive)
SF-295
  GI50: > 50 µM (inactive)
SF-539
  GI50: > 50 µM (inactive)
SK-MEL-28
  GI50: > 50 µM (inactive)
SK-MEL-2
  GI50: > 50 µM (inactive)
SK-MEL-5
  GI50: > 50 µM (inactive)
SK-OV-3
  GI50: > 50 µM (inactive)
SN12C
  GI50: > 50 µM (inactive)
SNB-19
  GI50: > 50 µM (inactive)
SNB-75
  GI50: > 50 µM (inactive)
SR
  GI50: > 50 µM (inactive)
SW-620
  GI50: > 50 µM (inactive)
T47D
  GI50: 28.8 µM (inactive)
TK-10
  GI50: > 50 µM (inactive)
U-251
  GI50: > 50 µM (inactive)
UACC-257
  GI50: > 50 µM (inactive)
UACC-62
  GI50: 20.9 µM (inactive)
UO-31
  GI50: > 50 µM (inactive)

## Cc1c(O)nc(/C=C/C(=O)O)nc1C(=O)O
786-0
  GI50: > 100 µM (inactive)
A498
  GI50: > 100 µM (inactive)
A549
  GI50: > 100 µM (inactive)
ACHN
  GI50: > 100 µM (inactive)
BT-549
  GI50: > 100 µM (inactive)
CAKI-1
  GI50: > 100 µM (inactive)
CCRF-CEM
  GI50: > 100 µM (inactive)
COLO 205
  GI50: > 100 µM (inactive)
DU-145
  GI50: > 100 µM (inactive)
EKVX
  GI50: > 100 µM (inactive)
HCT-116
  GI50: > 100 µM (inactive)
HCT-15
  GI50: > 100 µM
HL-60
  GI50: > 100 µM (inactive)
HOP-62
  GI50: > 100 µM (inactive)
HOP-92
  GI50: > 100 µM (inactive)
HT-29
  GI50: > 100 µM (inactive)
Hs-578T
  GI50: > 100 µM (inactive)
IGROV-1
  GI50: > 100 µM (inactive)
K562
  GI50: > 100 µM (inactive)
KM12
  GI50: > 100 µM (inactive)
LOX IMVI
  GI50: > 100 µM (inactive)
M14
  GI50: > 100 µM (inactive)
MCF7
  GI50: > 100 µM (inactive)
MDA-MB-231
  GI50: > 100 µM (inactive)
MDA-MB-435
  GI50: > 100 µM (inactive)
MDA-N
  GI50: > 100 µM (inactive)
MOLT-4
  GI50: > 100 µM (inactive)
Malme-3M
  GI50: > 100 µM (inactive)
NCI-H226
  GI50: > 100 µM (inactive)
NCI-H23
  GI50: > 100 µM (inactive)
NCI-H460
  GI50: > 100 µM (inactive)
NCI-H522
  GI50: > 100 µM (inactive)
NCI/ADR-RES
  GI50: > 100 µM (inactive)
OVCAR-3
  GI50: > 100 µM (inactive)
OVCAR-4
  GI50: > 100 µM (inactive)
OVCAR-5
  GI50: > 100 µM (inactive)
OVCAR-8
  GI50: > 100 µM (inactive)
PC-3
  GI50: > 100 µM (inactive)
RPMI-8226
  GI50: > 100 µM (inactive)
RXF 393
  GI50: > 100 µM (inactive)
SF-268
  GI50: > 100 µM (inactive)
SF-295
  GI50: > 100 µM (inactive)
SF-539
  GI50: > 100 µM (inactive)
SK-MEL-28
  GI50: > 100 µM (inactive)
SK-MEL-2
  GI50: > 100 µM (inactive)
SK-MEL-5
  GI50: > 100 µM (inactive)
SK-OV-3
  GI50: > 100 µM (inactive)
SN12C
  GI50: > 100 µM (inactive)
SNB-19
  GI50: > 100 µM (inactive)
SNB-75
  GI50: > 100 µM (inactive)
SR
  GI50: > 100 µM (inactive)
SW-620
  GI50: > 100 µM (inactive)
T47D
  GI50: > 100 µM (inactive)
TK-10
  GI50: > 100 µM (inactive)
U-251
  GI50: > 100 µM (inactive)
UACC-257
  GI50: > 100 µM (inactive)
UACC-62
  GI50: > 100 µM (inactive)
UO-31
  GI50: > 100 µM (inactive)
